Values after ≈ are worked out from the molar mass of the structure shown.
assay: Solubility in silicone oil at 25° C.; conditions: oil or lipid

With CC(C)N1CCN(c2ccc(OCC3COC(Cn4cncn4)(c4ccc(Cl)cc4Cl)O3)cc2)CC1 (stereo not shown) [terconazole] as the molecule, how does the solubility read?
The solubility was 200 µg/mL (≈ 376 µM).

Which solubility does the source give for Cc1ncc([N+](=O)[O-])n1CCO [metronidazole] here?
The solubility was 6 µg/mL (≈ 35.1 µM).

Which solubility does the source give for C[C@]12CC[C@H]3[C@@H](CCC4=CC(=O)CC[C@@]43C)[C@@H]1CC[C@@H]2O [testosterone] here?
Its solubility is 140 µg/mL (≈ 485 µM).

For Nc1nc2c(ncn2COCCO)c(=O)[nH]1 [acyclovir], which solubility is on record?
Its solubility is < 80 µg/mL.
